Source: US10786477B2, “Formulations having anti-inflammatory activity and antimicrobial activity against gram-positive bacteria” (NATUREZA, INC., priority 2014, dated 2020)
≈ marks a conversion by molar mass, not a printed value. Where two headings read alike, the source gives them in different places.

Tests used:
B. bifidum = experiment: MIC, CLSI broth microdilution M07; assay type: cell-based; conditions: Bifidobacterium bifidum; Table 2; active component range 0.08-8 mg/ml; >8 = no inhibitory effect
S. aureus = experiment: MIC, CLSI broth microdilution M07; assay type: cell-based, Staphylococcus aureus
S. epidemidis = experiment: MIC, CLSI broth microdilution M07; assay type: cell-based, Staphylococcus epidermidis
E coli = experiment: MIC, CLSI broth microdilution M07; assay type: cell-based, Escherichia coli
L. acidophilus = experiment: MIC, CLSI broth microdilution M07; assay type: cell-based; conditions: Lactobacillus acidophilus; Table 2; active component range 0.08-8 mg/ml; >8 = no inhibitory effect
Lactobacillus spp. = experiment: MIC, CLSI broth microdilution M07; assay type: cell-based
S. mutans = experiment: MIC, CLSI broth microdilution M07; assay type: cell-based, Streptococcus mutans
Mycobacterium = experiment: MIC, CLSI broth microdilution; assay type: cell-based; conditions: Table 1; active component in compositions of first example; range 0.08-5 wt.%
C. difficile = experiment: MIC, CLSI broth microdilution M07; assay type: cell-based, Clostridium difficile
S. mitis = experiment: MIC, CLSI broth microdilution M07; assay type: cell-based, Streptococcus mitis
Candida = experiment: MIC of fungi, CLSI broth microdilution M27; assay type: cell-based
S. pyogenes = experiment: MIC, CLSI broth microdilution M07; assay type: cell-based, Streptococcus pyogenes
bacteria = conditions: background, cited from earlier work; for antibacterial / antimicrobial activity: compared with lauric acid
M. bovis = experiment: microbe, parasite or virus in culture; assay type: cell-based
C. albicans = experiment: MIC of fungi, CLSI broth microdilution M27; assay type: cell-based; conditions: Candida albicans; Table 2; active component range 0.08-8 mg/ml
[1] = test system: strains of Staphylococcus; experiment: Bacterial growth in presence of first-example suspensions; assay type: cell-based, Staphylococcus spp.; conditions: first example: optically clear suspensions of 1 wt.% active component combined with 2% bile
Description: In these examples, the optically clear suspensions were combined with 2% bile when evaluating activity against various bacteria.

Bifidobacterium = experiment: MIC, CLSI broth microdilution M07; assay type: cell-based
[2] = Staphylococcus aureus, Table 2, active component range 0.08-8 mg/ml, read-out: MIC
[3] = Table 1, active component in compositions of first example, range 0.08-5 wt.%
[4] = Table 3, active component range 0.0009-8 μg/ml, values match chitosan-coated liposomes of third example
[5] = Escherichia coli, Table 2, active component range 0.08-8 mg/ml, >8 = no inhibitory effect, read-out: MIC
[6] = Table 1, active component in compositions of first example, range 0.08-5 wt.%, >>5% = no inhibitory effect
[7] = Streptococcus mutans, Table 2, active component range 0.08-8 mg/ml, read-out: MIC
[8] = Clostridioides difficile, Table 2, active component range 0.08-8 mg/ml, read-out: MIC
[9] = Mycobacterium tuberculosis variant bovis

| Structure (SMILES) | MIC (B. bifidum) [µg/mL] | MIC (S. aureus; [2]) [µg/mL] | MIC (S. aureus; [3]) [%] | MIC (S. aureus; [4]) [%] | MIC (S. epidemidis; [3]) [%] | MIC (S. epidemidis; [4]) [%] | MIC (E coli; [5]) [µg/mL] | MIC (E coli; [6]) | MIC (E coli; [4]) | MIC (L. acidophilus) [µg/mL] | MIC (Lactobacillus spp.; [6]) | MIC (Lactobacillus spp.; [4]) | MIC (S. mutans; [7]) [µg/mL] | MIC (S. mutans; [3]) [%] | MIC (S. mutans; [4]) [%] | MIC (Mycobacterium) [%] | MIC (C. difficile; [8]) [µg/mL] | MIC (C. difficile; [3]) [%] | MIC (C. difficile; [4]) [%] | MIC (S. mitis; [3]) [%] | other results |
| --- | --- | --- | --- | --- | --- | --- | --- | --- | --- | --- | --- | --- | --- | --- | --- | --- | --- | --- | --- | --- | --- |
| CCCCCCCCCCCC(=O)OC [ML, methyl laurate] | > 8000 | 800 (≈ 3.73 mM) | 0.5 | 0.0018 | 0.5 | 0.0018 | > 8000 | >>5%^ | >>5% | > 8000 | >>5%^ | >>5% | 800 (≈ 3.73 mM) | 0.5 | 0.0018 | 0.5 | 800 (≈ 3.73 mM) | 1 | 0.0018 | 0.5 | MIC (S. mitis; [4]): 0.0018%; MIC (Candida; [3]): 0.5%; MIC (Candida; [4]): 0.0018%; MIC (S. pyogenes; [3]): 0.5%; MIC (S. pyogenes; [4]): 0.0018%; antibacterial / antimicrobial activity (bacteria): some modest antibacterial activity in vitro; MIC (M. bovis; [9]): 2000 µg/mL (≈ 9.33 mM); MIC (M. bovis; [4]): 0.0018%; MIC (C. albicans): < 80 µg/mL; effect on bacterial growth [1]: significantly retarded bacterial growth; MIC (Bifidobacterium; [6]): >>5%^; MIC (Bifidobacterium; [4]): >>5% |
| CCCCCCCCCCCC(=O)OCC [EL, ethyl laurate] | > 8000 | 800 (≈ 3.5 mM) | 0.5 | 0.0018 | 0.5 | 0.0018 | > 8000 | >>5%^ | >>5% | > 8000 | >>5%^ | >>5% | 800 (≈ 3.5 mM) | 0.5 | 0.0018 | 1 | 800 (≈ 3.5 mM) | 0.5 | 0.0018 | 0.5 | MIC (S. mitis; [4]): 0.0018%; MIC (Candida; [3]): 0.5%; MIC (Candida; [4]): 0.0018%; MIC (S. pyogenes; [3]): 0.5%; MIC (S. pyogenes; [4]): 0.0018%; activity relative to lauric acid (times less active) (bacteria): forty times less active; antibacterial / antimicrobial activity (bacteria): little or no antimicrobial activity; MIC (M. bovis; [9]): 2000 µg/mL (≈ 8.76 mM); MIC (M. bovis; [4]): 0.0018%; MIC (C. albicans): < 80 µg/mL; effect on bacterial growth [1]: completely bacteriostatic; MIC (Bifidobacterium; [6]): >>5%^; MIC (Bifidobacterium; [4]): >>5% |
